According to paper PMC3563528, “Ultrashort Cationic Lipopeptides and Lipopeptoids Selectively Induce Cytokine Production in Macrophages” (PLoS ONE, 2013):
Several values for one entry are separate records, joined by “and”; a condition that tells them apart may be missing. Equal values may be shown once. Marks after values point to notes of the source that are not given here.

Experiments:
[1] = tested on: human macrophage-like THP-1 cells; experiment: IL-8 production by ELISA in TC supernatants; type: cell-based; details: 24 h exposure; for IL-8 induction (in words): concentrations tested up to 100 µM; for IL-8 production: mean ± sem
Method: (§1) Prior to testing, human monocytic THP-1 cells were differentiated to plastic-adherent macrophage-like THP-1 cells as previously described. The cells were rested for twenty-four hours, then exposed to the amphiphiles of interest for twenty-four hours. Cell free TC supernatants were monitored for the production of chemokines Groα and IL-8 by ELISA as previously described, [34]. The constitutive background level of chemokine Groα was 6.6±1.8 pg/ml, and that of IL-8 was 1.7±0.16 ng/ml. Encouragingly, the majority of compounds were strong inducers of both IL-8 and Groα and increased chemokine levels above background (Figure 2). […] The three amphiphiles with a LysLysLys peptide sequence and lipid tail at least sixteen carbons in length, 5–7, were especially strong inducers of IL-8, increasing the concentration to 5–8 ng/mL (p<0.05) above control at 10 µM of lipopeptide, and up to 13 ng/mL (p<0.01) above control at 50 µM (Figure 2). These amphiphiles compared favourably to LL-37 (1.3 ng/mL of IL-8 above control at 10 µM), despite their brief peptide sequence. […] All lipopeptides with lipid tails shorter than sixteen carbons were unable to induce either IL-8 or Groα at concentrations up to 100 µM (Figure 2, Figure S1).
(§2) ELISA results were obtained from two biological replicates with two technical replicates each and statistical analyses was performed using Student paired t-test. Error bars in the graphs represents standard error of the mean, and a p-value of less that 0.05 was considered to be statistically significant.

[2] = tested on: human macrophage-like THP-1 cells; experiment: Groα production by ELISA in TC supernatants; type: cell-based; details: 24 h exposure; for Groα induction (in words): concentrations tested up to 100 µM
Method: as §1, §2

MSSE 81388 CANWARD 2008 = tested on: MSSE 81388 CANWARD 2008; design: method as in earlier work; details: data from previous studies converted into µM; cited from earlier work
MRSA ATCC 33592 = tested on: MRSA ATCC 33592; design: method as in earlier work; details: data from previous studies converted into µM; cited from earlier work
[3] = tested on: MRSE (CZ >32) CAN-ICU 61589; design: method as in earlier work; details: data from previous studies converted into µM; cited from earlier work
S.aureus ATCC 29213 = tested on: S.aureus ATCC 29213; design: method as in earlier work; details: data from previous studies converted into µM; cited from earlier work
[4] = tested on: human macrophage-like THP-1 cells; experiment: IL-1β production by ELISA in TC supernatants; type: cell-based; details: 24 h exposure
Method: Figure 3 IL-1β production. Human macrophage-like THP-1 cells were exposed to amphiphiles 4–11 and 14–21, for twenty-four hours. TC supernatants were monitored for IL-1β by ELISA, with results shown in pg/mL. Studies were performed in two independent biological replicates with two technical replicate each, with the data here presented as the mean plus sem. Inset: Expanded results for the negative control and amphiphiles 4–7 at 5 µM and 10 µM.
as §2

[5] = tested on: human macrophage-like THP-1 cells; experiment: TNF-α production by ELISA in TC supernatants; type: cell-based; details: any concentration tested, at or below 100 µM, 24 h exposure
Method: as §2
Supplementary file pone.0054280.s002.tiff: Figure S2 TNF-α production by human macrophage-like THP-1 cells following incubation with amphiphiles 1–21. TC supernatants were monitored for cytokine production via ELISA, and results are reported in pg/mL. All studies were performed in two independent biological replicates with two technical replicates each. (TIFF) Click here for additional data file.

Gram positive strains = details: in vitro; cited from earlier work
Source text: We have shown that ultrashort lipopeptides and lipopeptoids are able to induce selective cytokine production in human macrophages, despite little structural similarity to any known host defence peptide or CAMP.

[6] = 50 µM amphiphile, two biological replicates with two technical replicates each
[7] = 50 µM amphiphile, mean ± sem, two biological replicates with two technical replicates each

C16-NLysGlyNLys-NH2 [compound 13]
IL-8 induction (in words) [1]: inactive | Groα induction (in words) [2]: inactive

C11-NLysGlyNLys-NH2 [compound 12]
IL-8 induction (in words) [1]: inactive | Groα induction (in words) [2]: inactive

C20-LysLysLys-NH2 [compound 7]
Antimicrobial activity (MIC) (MSSE 81388 CANWARD 2008): 7.7 µM | Antimicrobial activity (MIC) (MRSA ATCC 33592): 7.7 µM | Antimicrobial activity (MIC) [3]: 7.7 µM | Antimicrobial activity (MIC) (S.aureus ATCC 29213): 7.7 µM | Increase of IL-1β concentration ([4]; moving from 10 µM to 50 µM): over forty-fold

C16OH-NHarNHarNHar-NH2 [compound 20]
TNF-α induction (in words) [5]: did not induce | IL-8 induction (in words) [1]: moderate inducers | IL-1β induction (in words) [4]: did not induce | Groα induction (in words) [2]: moderate inducers

C16OH-HarHarHar -NH2 [compound 10]
IL-8 production [1, 6]: up to 10 ng/mL

C11-LysLysLys-NH2 [compound 4]
Antimicrobial activity (MIC) (MSSE 81388 CANWARD 2008): 281 µM | Antimicrobial activity (MIC) (MRSA ATCC 33592): >561 µM | Antimicrobial activity (MIC) [3]: 281 µM | Antimicrobial activity (MIC) (S.aureus ATCC 29213): 561^a μM

C20-LysGlyLys-NH2 [compound 3]
IL-8 induction (in words) [1]: failed to significantly increase IL-8 production

C16-LysGlyLys-NH2 [compound 1]
IL-8 above control [1, 6]: 0.2 ng/mL

C20-HarHarHar-NH2 [compound 11]
IL-8 production [1, 6]: up to 10 ng/mL

C16OH-LysGlyLys-NH2 [compound 2]
IL-8 induction (in words) [1]: failed to significantly increase IL-8 production

C16OH-LysLysLys-NH2 [compound 6]
Antimicrobial activity (MIC) (MSSE 81388 CANWARD 2008): 128 µM | Antimicrobial activity (MIC) (MRSA ATCC 33592): 128 µM | Antimicrobial activity (MIC) [3]: 128 µM | Antimicrobial activity (MIC) (S.aureus ATCC 29213): 128 µM | IL-8 production [1, 6]: 12.5 ± 0.5 ng/mL | Groα production [2, 7]: 670 pg/mL

LLGDFFRKSKEKIGKEFKRIVQRIKDFLRNLVPRTES-OH [LL-37, human cathelicidin LL-37, natural host defence peptide, positive control, reference compound]
IL-8 above control ([1]; 10 µM amphiphile, two biological replicates with two technical replicates each): 1.3 ng/mL | Groα production ([2]; 2.5 µM): 800 pg/mL

C16-LysLysLys-NH2 [compound 5]
Antimicrobial activity (MIC) (MSSE 81388 CANWARD 2008): <0.25 µM | Antimicrobial activity (MIC) (MRSA ATCC 33592): 4.1 µM | Antimicrobial activity (MIC) [3]: <0.25 µM | Antimicrobial activity (MIC) (S.aureus ATCC 29213): 8.1 µM | IL-8 production [1, 6]: 7.7 ± 0.6 ng/mL

C20-NHarNHarNHar-NH2 [compound 21]
Antimicrobial activity (MIC) (MSSE 81388 CANWARD 2008): 6.9 µM | Antimicrobial activity (MIC) (MRSA ATCC 33592): 14 µM | MIC (Gram positive strains): ≤ 16 µg/mL | Antimicrobial activity (MIC) [3]: 6.9 µM | Antimicrobial activity (MIC) (S.aureus ATCC 29213): 6.9 µM | IL-8 production ([1]; 50 and 100 µM amphiphile): 6 ± 0.8 ng/mL | IL-8 induction (in words) [1]: moderate inducer | Groα production [2, 7]: 996 ± 4 pg/mL and 1000 pg/mL | Groα production ([2]; 100 µM amphiphile): 200 pg/mL | Groα induction (in words) [2]: strongest inducer

C16OH-NLysNLysNLys-NH2 [compound 16]
TNF-α induction (in words) [5]: did not induce | IL-8 induction (in words) [1]: moderate inducers | IL-1β induction (in words) [4]: did not induce | Groα induction (in words) [2]: moderate inducers
